Results: PubChem BioAssay (NCI)
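Cultured in 96-well plates, cells were exposed to test compound for 48 hours across five concentrations. TGI: concentration producing complete growth inhibition.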

What was measured:
Assay in all cases: growth of human tumour cells (NCI), 48 h
[1] = test system: SF-295 CNS
[2] = test system: SK-MEL-2 melanoma
[3] = test system: OVCAR-8 ovarian
[4] = test system: HOP-92 NSCLC
[5] = test system: NCI/ADR-RES ovarian
[6] = test system: MCF7 breast
[7] = test system: 786-0 renal
[8] = test system: NCI-H23 lung
[9] = test system: U251 CNS
[10] = test system: PC-3 prostate
[11] = test system: HT29 colon
[12] = test system: KM12 colon
[13] = test system: T-47D breast
[14] = test system: UO-31 renal
[15] = test system: OVCAR-3 ovarian
[16] = test system: OVCAR-5 ovarian
[17] = test system: UACC-62 melanoma
[18] = test system: RXF 393 renal
[19] = test system: SN12C renal
[20] = test system: HS 578T breast
[21] = test system: CAKI-1 renal
[22] = test system: SK-MEL-28 melanoma
[23] = test system: ACHN renal
[24] = test system: K-562 leukemia
[25] = test system: EKVX NSCLC
[26] = test system: HCT-15 colon
[27] = test system: IGROV1 ovarian
[28] = test system: SW-620 colon
[29] = test system: SNB-19 CNS
[30] = test system: MDA-N
[31] = test system: OVCAR-4 ovarian
[32] = test system: HL-60(TB) leukemia
[33] = test system: TK-10 renal
[34] = test system: NCI-H460 lung
[35] = test system: SK-MEL-5 melanoma
[36] = test system: HOP-62 NSCLC
[37] = test system: NCI-H226 lung
[38] = test system: A498 renal
[39] = test system: LOX IMVI melanoma
[40] = test system: MDA-MB-231 breast
[41] = test system: CCRF-CEM leukemia
[42] = test system: MOLT-4 leukemia
[43] = test system: SK-OV-3 ovarian
[44] = test system: MALME-3M melanoma
[45] = test system: DU-145 prostate
[46] = test system: HCT-116 colon
[47] = test system: COLO 205 colon
[48] = test system: SF-268 CNS
[49] = test system: M14 melanoma
[50] = test system: BT-549 breast
[51] = test system: UACC-257 melanoma
[52] = test system: A549 NSCLC
[53] = test system: MDA-MB-435
[54] = test system: NCI-H522 lung
[55] = test system: SF-539 CNS
[56] = test system: RPMI-8226 leukemia
[57] = test system: SNB-75 CNS
[58] = test system: HCC-2998 colon

C#C[C@]1(O)CC[C@H]2[C@@H]3CCC4=CC(=NCCOC(=O)c5cccc6c(=O)c7ccccc7[nH]c56)CC[C@@H]4[C@H]3CC[C@@]21C
TGI [1]: > 100 µM
TGI [2]: 95.6 µM
TGI [3]: 48.9 µM
TGI [4]: 89.6 µM
TGI [5]: > 100 µM
TGI [6]: > 100 µM
TGI [7]: > 100 µM
TGI [8]: > 100 µM
TGI [9]: 51.4 µM
TGI [10]: 55 µM
TGI [11]: > 100 µM
TGI [12]: > 100 µM
TGI [13]: 78.1 µM
TGI [14]: > 100 µM
TGI [15]: > 100 µM
TGI [16]: > 100 µM
TGI [17]: > 100 µM
TGI [18]: 43.2 µM
TGI [19]: > 100 µM
TGI [20]: > 100 µM
TGI [21]: > 100 µM
TGI [22]: > 100 µM
TGI [23]: > 100 µM
TGI [24]: > 100 µM
TGI [25]: > 100 µM
TGI [26]: > 100 µM
TGI [27]: > 100 µM
TGI [28]: > 100 µM
TGI [29]: > 100 µM
TGI [30]: > 100 µM
TGI [31]: > 100 µM
TGI [32]: > 100 µM
TGI [33]: > 100 µM
TGI [34]: > 100 µM
TGI [35]: > 100 µM
TGI [36]: > 100 µM
TGI [37]: > 100 µM
TGI [38]: > 100 µM
TGI [39]: 84 µM
TGI [40]: 72.6 µM
TGI [41]: > 100 µM
TGI [42]: > 100 µM
TGI [43]: > 100 µM
TGI [44]: 91.1 µM
TGI [45]: > 100 µM
TGI [46]: > 100 µM
TGI [47]: > 100 µM
TGI [48]: > 100 µM
TGI [49]: > 100 µM
TGI [50]: > 100 µM
TGI [51]: > 100 µM
TGI [52]: > 100 µM
TGI [53]: > 100 µM
TGI [54]: > 100 µM

CC(C)(C)C(=O)N(C(=S)OCc1ccccn1)c1ccccc1
TGI [2]: 70.5 µM
TGI [3]: > 100 µM
TGI [5]: 91.8 µM
TGI [6]: 61.5 µM
TGI [7]: > 100 µM
TGI [8]: > 100 µM
TGI [9]: > 100 µM
TGI [10]: > 100 µM
TGI [11]: > 100 µM
TGI [12]: 71.4 µM
TGI [13]: 63.5 µM
TGI [14]: 84.3 µM
TGI [15]: > 100 µM
TGI [16]: > 100 µM
TGI [17]: > 100 µM
TGI [18]: 63.9 µM
TGI [19]: > 100 µM
TGI [20]: > 100 µM
TGI [21]: > 100 µM
TGI [22]: > 100 µM
TGI [23]: > 100 µM
TGI [24]: > 100 µM
TGI [55]: 46.3 µM
TGI [25]: 57.7 µM
TGI [26]: 85.2 µM
TGI [27]: 54.3 µM
TGI [28]: > 100 µM
TGI [29]: > 100 µM
TGI [30]: > 100 µM
TGI [32]: 64.8 µM
TGI [33]: > 100 µM
TGI [35]: 46.6 µM
TGI [36]: 46.8 µM
TGI [37]: > 100 µM
TGI [38]: > 100 µM
TGI [39]: 51.6 µM
TGI [40]: > 100 µM
TGI [41]: 68 µM
TGI [42]: 62.4 µM
TGI [43]: > 100 µM
TGI [44]: 44.6 µM
TGI [56]: 58.7 µM
TGI [45]: > 100 µM
TGI [46]: 52.3 µM
TGI [47]: 49.6 µM
TGI [48]: > 100 µM
TGI [49]: > 100 µM
TGI [50]: > 100 µM
TGI [51]: > 100 µM
TGI [53]: > 100 µM

O=C(O)c1cccc2cccc(-c3c4ccc(=O)cc-4oc4cc(O)ccc34)c12
TGI [1]: > 100 µM
TGI [2]: > 100 µM
TGI [3]: > 100 µM
TGI [5]: > 100 µM
TGI [6]: > 100 µM
TGI [8]: > 100 µM
TGI [9]: > 100 µM
TGI [10]: > 100 µM
TGI [11]: > 100 µM
TGI [12]: > 100 µM
TGI [13]: > 100 µM
TGI [14]: > 100 µM
TGI [15]: 54.1 µM
TGI [16]: > 100 µM
TGI [17]: > 100 µM
TGI [18]: > 100 µM
TGI [19]: > 100 µM
TGI [20]: > 100 µM
TGI [21]: > 100 µM
TGI [57]: > 100 µM
TGI [22]: > 100 µM
TGI [23]: > 100 µM
TGI [24]: > 100 µM
TGI [55]: > 100 µM
TGI [25]: > 100 µM
TGI [58]: > 100 µM
TGI [26]: > 100 µM
TGI [27]: > 100 µM
TGI [28]: > 100 µM
TGI [29]: > 100 µM
TGI [30]: > 100 µM
TGI [31]: > 100 µM
TGI [32]: > 100 µM
TGI [33]: > 100 µM
TGI [34]: > 100 µM
TGI [35]: > 100 µM
TGI [36]: 37.2 µM
TGI [38]: > 100 µM
TGI [39]: > 100 µM
TGI [40]: > 100 µM
TGI [41]: > 100 µM
TGI [42]: > 100 µM
TGI [43]: > 100 µM
TGI [44]: > 100 µM
TGI [56]: > 100 µM
TGI [45]: > 100 µM
TGI [46]: > 100 µM
TGI [47]: > 100 µM
TGI [48]: > 100 µM
TGI [49]: > 100 µM
TGI [50]: > 100 µM
TGI [51]: > 100 µM
TGI [52]: > 100 µM
TGI [53]: > 100 µM
TGI [54]: > 100 µM

C#C[C@]1(O)CC[C@H]2[C@@H]3CCC4=CC(=NCCOC(=O)c5cccc6cc7ccccc7nc56)CC[C@@H]4[C@H]3CC[C@@]21C
TGI [1]: 67.6 µM
TGI [2]: 53.9 µM
TGI [3]: 21.9 µM
TGI [4]: 48.6 µM
TGI [5]: 81.3 µM
TGI [6]: 69.4 µM
TGI [7]: > 100 µM
TGI [8]: 62.5 µM
TGI [9]: 25.2 µM
TGI [10]: 34.9 µM
TGI [11]: > 100 µM
TGI [12]: 97.2 µM
TGI [13]: 75.9 µM
TGI [14]: > 100 µM
TGI [15]: > 100 µM
TGI [16]: > 100 µM
TGI [17]: 96.1 µM
TGI [18]: 28.3 µM
TGI [19]: > 100 µM
TGI [20]: 63.8 µM
TGI [21]: > 100 µM
TGI [22]: > 100 µM
TGI [23]: > 100 µM
TGI [24]: > 100 µM
TGI [25]: > 100 µM
TGI [26]: 43.1 µM
TGI [27]: 30.8 µM
TGI [28]: > 100 µM
TGI [29]: > 100 µM
TGI [30]: > 100 µM
TGI [31]: > 100 µM
TGI [32]: > 100 µM
TGI [33]: > 100 µM
TGI [34]: 35.8 µM
TGI [35]: > 100 µM
TGI [36]: > 100 µM
TGI [37]: > 100 µM
TGI [38]: > 100 µM
TGI [39]: 24.8 µM
TGI [40]: 44.8 µM
TGI [41]: > 100 µM
TGI [42]: > 100 µM
TGI [43]: > 100 µM
TGI [44]: 74.4 µM
TGI [45]: > 100 µM
TGI [46]: > 100 µM
TGI [47]: > 100 µM
TGI [48]: 72.3 µM
TGI [49]: 61.3 µM
TGI [50]: 74.2 µM
TGI [51]: > 100 µM
TGI [52]: > 100 µM
TGI [53]: > 100 µM
TGI [54]: 45.6 µM

CC(C)(CN1CCCCC1)C(/C=C/c1ccc(Cl)c(Cl)c1)=N\NC(=O)N/N=C(/C=C/c1ccc(Cl)c(Cl)c1)C(C)(C)CN1CCCCC1
TGI [1]: 3.07 µM
TGI [2]: > 10 µM
TGI [3]: 3.38 µM
TGI [5]: 3.32 µM
TGI [6]: 3.09 µM
TGI [7]: 2.8 µM
TGI [8]: 3.4 µM
TGI [9]: 3.13 µM
TGI [10]: > 10 µM
TGI [11]: 1.25 µM
TGI [12]: 3.08 µM
TGI [13]: 4.1 µM
TGI [14]: 5.56 µM
TGI [15]: 2.91 µM
TGI [16]: 2.97 µM
TGI [17]: 3.4 µM
TGI [18]: 1.99 µM
TGI [19]: 3.24 µM
TGI [20]: 3.39 µM
TGI [21]: 3.16 µM
TGI [57]: 3.12 µM
TGI [22]: 3.16 µM
TGI [23]: 3.37 µM
TGI [24]: 0.876 µM
TGI [55]: 3.25 µM
TGI [25]: 3.06 µM
TGI [58]: 3.12 µM
TGI [26]: 2.56 µM
TGI [27]: 3.64 µM
TGI [28]: 3.13 µM
TGI [29]: 3.22 µM
TGI [30]: 2.75 µM
TGI [31]: 3.19 µM
TGI [32]: 3.25 µM
TGI [33]: 3.08 µM
TGI [34]: 2.77 µM
TGI [35]: 3.5 µM
TGI [36]: 3.32 µM
TGI [37]: 4.1 µM
TGI [38]: 3.11 µM
TGI [39]: 2.5 µM
TGI [40]: 3.71 µM
TGI [41]: 3.45 µM
TGI [42]: 8.74 µM
TGI [43]: 3.33 µM
TGI [44]: 2.95 µM
TGI [56]: 9 µM
TGI [45]: 3.33 µM
TGI [46]: 2.11 µM
TGI [47]: 3.19 µM
TGI [48]: 3.15 µM
TGI [49]: 1.32 µM
TGI [50]: > 10 µM
TGI [51]: 3.08 µM
TGI [52]: 3.3 µM
TGI [53]: 2.57 µM
TGI [54]: 3.56 µM
